These are literature values, as cited in patent US8741563B2, “Metronidazole resistance in trichomonas vaginalis and single nucleotide polymorphisms” (priority 2011, dated 2014).

The test system of the data set is Trichomonas vaginalis. Conditions: reported effectiveness of metronidazole treatment.

As for `Cc1ncc([N+](=O)[O-])n1CCO` [Metronidazole], the treatment effective was 85-95%.
